Source: ChEMBL document CHEMBL3988442, “University of Dundee, Small-Polar-MMV Screening Library” (2021)
“And” between values parts separate entries of the source, which are not always exact repeats. Equal entries are not always repeated.

Experiments:
[1] = Trypanosoma cruzi proteasome luciferase counter-screen; type: functional, N/A
Proteasome subunit beta = biological target: T1, Proteasome subunit beta (Trypanosoma cruzi, UniProt O96673); assay: Trypanosoma cruzi proteasome chymotrypsin-like activity (TcProtChymo) assay.; type: functional
T1 sequence (O96673 whole entry): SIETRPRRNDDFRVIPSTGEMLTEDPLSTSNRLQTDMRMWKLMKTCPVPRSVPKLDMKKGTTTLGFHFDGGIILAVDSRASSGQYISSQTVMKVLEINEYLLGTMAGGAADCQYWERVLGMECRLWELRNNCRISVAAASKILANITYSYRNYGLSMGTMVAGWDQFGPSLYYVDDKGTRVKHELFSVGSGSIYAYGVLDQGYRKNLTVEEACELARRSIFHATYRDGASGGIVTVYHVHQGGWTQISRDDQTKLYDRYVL

Schistosoma mansoni = assay: High throughput screening of compounds against Schistosoma mansoni motility; type: functional; design: dose or concentration left out as unconfirmed
[2] = biological target: T2, Coenzyme A biosynthesis bifunctional protein CoaBC (Mycobacterium tuberculosis (strain ATCC 25618 / H37Rv), UniProt P9WNZ1); assay: Biomol Green assay for MtCoaBC inhibitor, OD650 read; type: functional
T2 sequence (P9WNZ1 whole entry): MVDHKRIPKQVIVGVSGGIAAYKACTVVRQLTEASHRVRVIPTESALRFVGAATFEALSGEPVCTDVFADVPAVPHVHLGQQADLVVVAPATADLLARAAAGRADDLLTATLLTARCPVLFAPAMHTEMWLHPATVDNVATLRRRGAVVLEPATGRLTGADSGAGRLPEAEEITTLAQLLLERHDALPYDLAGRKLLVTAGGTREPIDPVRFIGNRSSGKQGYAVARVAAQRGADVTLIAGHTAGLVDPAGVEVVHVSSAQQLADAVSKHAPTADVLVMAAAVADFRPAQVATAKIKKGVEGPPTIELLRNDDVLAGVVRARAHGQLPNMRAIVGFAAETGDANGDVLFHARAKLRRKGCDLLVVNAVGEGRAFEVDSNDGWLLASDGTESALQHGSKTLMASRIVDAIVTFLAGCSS

[3] = biological target: Polyketide synthase Pks13 (Mycobacterium tuberculosis (strain ATCC 25618 / H37Rv), UniProt I6X8D2); assay: Mycobacterium tuberculosis Polyketide synthase 13 Thioesterase (PKS13); type: functional
Histidine--tRNA ligase = biological target: T3, Histidine--tRNA ligase (Leishmania infantum, UniProt A4I591); assay: Leishmania infantum Histidine tRNA synthetase (LdHisRS); type: functional
T3 sequence (A4I591 whole entry): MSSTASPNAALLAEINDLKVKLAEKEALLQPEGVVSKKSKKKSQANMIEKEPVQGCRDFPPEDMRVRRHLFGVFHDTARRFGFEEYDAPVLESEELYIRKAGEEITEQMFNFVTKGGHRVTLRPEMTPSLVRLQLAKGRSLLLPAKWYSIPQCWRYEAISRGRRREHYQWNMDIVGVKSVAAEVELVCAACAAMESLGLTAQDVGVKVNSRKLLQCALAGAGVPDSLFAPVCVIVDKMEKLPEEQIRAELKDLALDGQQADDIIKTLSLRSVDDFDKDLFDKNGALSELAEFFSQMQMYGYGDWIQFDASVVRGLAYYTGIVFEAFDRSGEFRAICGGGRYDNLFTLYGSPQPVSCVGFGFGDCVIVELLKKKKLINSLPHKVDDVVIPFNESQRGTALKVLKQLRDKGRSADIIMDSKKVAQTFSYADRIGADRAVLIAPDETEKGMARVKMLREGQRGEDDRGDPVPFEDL

[4] = To identify inhibition of the IFN signalling (Jak-Stat) pathway via expression of an eGFP reporter gene under the control of an IFN-stimulated response element (ISRE) containing MxA promoter.; type: functional, Homo sapiens
[5] = biological target: AMP-activated protein kinase, AMPK; assay: AMP-dependent Kinase enzyme assay. An in vitro enzyme assay that detects ADP turnover that is directly proportional to AMPK activity. This uses naive AMPK that is activated during the assay with MK-8722; type: functional, Homo sapiens
Trypanosoma brucei = assay: Trypanosoma brucei 72 hour study; type: functional, organism-based
Leishmania donovani = assay: Leishmania intramacrophage assay; type: functional, organism-based
Plasmodium falciparum [6] = assay: Calibr Malaria Delayed Death Assay SOP; type: functional, organism-based
ClpP1P2 = ClpP1P2 (Mycobacterium tuberculosis (strain ATCC 25618 / H37Rv), UniProt P9WPC3+P9WPC5); assay: in vitro assay to detect presence of AMC directly proportional to the activity of ClpP1P2. GHDDI collaboration.; type: functional
[7] = microbe, parasite or virus in culture; conditions: Mycobacterium tuberculosis, 72 h, read-out: pIC50 (converted)
[8] = microbe, parasite or virus in culture; conditions: Mycobacterium tuberculosis, 96 h, read-out: pIC50 (converted)
Plasmodium falciparum [9] = assay: Plasmodium falciparum sporozoite viability assay; type: functional, organism-based

ClpP1P2, sequence (P9WPC5 whole entry): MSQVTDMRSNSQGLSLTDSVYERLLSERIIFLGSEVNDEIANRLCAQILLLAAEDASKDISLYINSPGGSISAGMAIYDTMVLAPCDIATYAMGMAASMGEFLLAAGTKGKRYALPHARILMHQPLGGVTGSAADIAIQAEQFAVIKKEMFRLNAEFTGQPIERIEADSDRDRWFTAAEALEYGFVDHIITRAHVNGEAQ
ClpP1P2, sequence (P9WPC3 whole entry): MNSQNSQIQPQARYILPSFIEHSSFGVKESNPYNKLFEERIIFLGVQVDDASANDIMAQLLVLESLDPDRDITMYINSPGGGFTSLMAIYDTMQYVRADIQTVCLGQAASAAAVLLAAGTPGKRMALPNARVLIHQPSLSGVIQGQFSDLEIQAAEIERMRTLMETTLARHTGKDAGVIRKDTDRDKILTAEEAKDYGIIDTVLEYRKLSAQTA
Polyketide synthase Pks13, sequence (I6X8D2 whole entry): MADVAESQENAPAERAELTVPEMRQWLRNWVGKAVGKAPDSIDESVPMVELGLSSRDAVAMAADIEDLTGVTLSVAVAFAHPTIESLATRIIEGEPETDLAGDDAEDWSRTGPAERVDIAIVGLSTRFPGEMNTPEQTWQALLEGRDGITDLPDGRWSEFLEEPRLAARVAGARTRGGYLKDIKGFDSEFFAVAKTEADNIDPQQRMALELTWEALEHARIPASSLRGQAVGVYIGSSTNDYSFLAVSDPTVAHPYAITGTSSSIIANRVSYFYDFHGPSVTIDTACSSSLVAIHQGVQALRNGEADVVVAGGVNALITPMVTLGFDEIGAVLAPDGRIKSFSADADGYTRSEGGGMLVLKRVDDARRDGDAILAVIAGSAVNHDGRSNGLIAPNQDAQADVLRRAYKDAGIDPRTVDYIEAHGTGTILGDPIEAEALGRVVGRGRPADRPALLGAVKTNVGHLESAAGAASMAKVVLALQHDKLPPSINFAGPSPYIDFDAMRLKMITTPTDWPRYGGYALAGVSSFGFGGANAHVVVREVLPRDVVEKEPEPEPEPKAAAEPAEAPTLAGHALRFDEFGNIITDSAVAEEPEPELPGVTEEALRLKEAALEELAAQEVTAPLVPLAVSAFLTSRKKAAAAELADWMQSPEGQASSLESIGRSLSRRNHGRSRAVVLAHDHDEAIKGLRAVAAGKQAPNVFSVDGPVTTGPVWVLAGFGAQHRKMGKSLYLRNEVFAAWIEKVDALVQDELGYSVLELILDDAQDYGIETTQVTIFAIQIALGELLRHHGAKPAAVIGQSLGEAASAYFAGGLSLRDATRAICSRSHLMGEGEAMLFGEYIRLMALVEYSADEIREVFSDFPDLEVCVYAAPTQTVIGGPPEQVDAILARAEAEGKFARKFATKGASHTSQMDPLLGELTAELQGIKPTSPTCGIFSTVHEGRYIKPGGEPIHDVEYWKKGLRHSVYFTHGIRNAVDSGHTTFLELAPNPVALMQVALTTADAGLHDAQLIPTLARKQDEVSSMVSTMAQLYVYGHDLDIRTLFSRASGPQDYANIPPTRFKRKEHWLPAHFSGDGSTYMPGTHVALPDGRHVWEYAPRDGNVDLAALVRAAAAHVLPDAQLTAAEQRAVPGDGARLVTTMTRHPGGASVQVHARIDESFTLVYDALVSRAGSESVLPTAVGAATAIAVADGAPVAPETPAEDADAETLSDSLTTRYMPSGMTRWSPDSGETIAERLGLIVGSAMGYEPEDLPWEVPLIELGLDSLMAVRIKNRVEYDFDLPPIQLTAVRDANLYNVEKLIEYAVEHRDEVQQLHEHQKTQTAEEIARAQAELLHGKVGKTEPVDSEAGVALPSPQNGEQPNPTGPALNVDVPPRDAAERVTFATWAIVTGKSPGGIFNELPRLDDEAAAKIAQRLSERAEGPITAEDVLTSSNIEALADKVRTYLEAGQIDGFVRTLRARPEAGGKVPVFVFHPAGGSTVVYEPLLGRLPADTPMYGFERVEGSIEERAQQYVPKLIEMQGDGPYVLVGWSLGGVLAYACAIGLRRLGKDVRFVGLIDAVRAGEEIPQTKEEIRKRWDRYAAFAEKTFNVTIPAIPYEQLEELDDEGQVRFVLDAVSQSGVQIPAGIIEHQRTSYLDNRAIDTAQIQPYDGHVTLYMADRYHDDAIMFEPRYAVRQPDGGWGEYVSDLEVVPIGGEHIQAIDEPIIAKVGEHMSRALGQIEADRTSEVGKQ

## O=C(Nc1ccc(F)c(Br)c1)N1CCCC1
[1]
  pIC50: < 4
Proteasome subunit beta
  IC50: 11.4 µM and 11.2 µM

## NC(=O)c1nc(COc2ccc3c(c2)OCO3)no1
[1]
  pIC50: < 4
Proteasome subunit beta
  IC50: 8.85 µM and 10.5 µM

## COc1cccc(C(=O)NCC(O)c2cccs2)c1 (stereo unspecified)
[1]
  pIC50: 4.037 and < 4
Proteasome subunit beta
  IC50: 16.9 µM and 18.4 µM
Schistosoma mansoni
  Percent Effect: -12.61%

## CC(C)c1cc2c(O)nc(CSCC(=O)O)nc2s1
[1]
  pIC50: 4.494 and 4.54
Proteasome subunit beta
  IC50: 7.28 µM and 8.24 µM

## COc1cccc(-c2nc(C)c(C(=O)NC(CO)CCSC)s2)c1 (stereo unspecified)
[1]
  pIC50: 4.212
Proteasome subunit beta
  IC50: 27.3 µM and 32.3 µM

## O=C(c1cn(-c2ccccc2Cl)nn1)N1CCCSCC1
[1]
  pIC50: 4.282 and 4.315
Proteasome subunit beta
  IC50: 14.2 µM and 16.4 µM

## CNC(=O)c1cnc(/C=C/c2ccc(OC)c(O)c2)s1
[1]
  pIC50: 4.132 and < 4
Proteasome subunit beta
  IC50: 17.4 µM and 13.8 µM

## CCCC(NC(=O)c1cc(C)n(C2CC2)c1C)c1nnn[nH]1 (stereo unspecified)
[1]
  pIC50: < 4
Proteasome subunit beta
  IC50: 55.7 µM and 67.9 µM

## CCc1nc(COc2ccc(OCc3cnn(C)c3)cc2)no1
[1]
  pIC50: 4.267 and 4.334
Proteasome subunit beta
  IC50: 12.3 µM and 13.3 µM

## Cc1cc(S(=O)(=O)Nc2cccc(-n3cccc3)c2)sc1C(=O)O
[1]
  pIC50: < 4
Proteasome subunit beta
  IC50: 16.4 µM and 18.9 µM
[2]
  IC50: > 30.2 µM
[3]
  IC50: 2.38 µM and 0.803 µM

## Cc1cnn(CC2CCCN2CC(=O)N(C)Cc2ccc(C)o2)c1 (stereo unspecified)
[1]
  pIC50: < 4
Proteasome subunit beta
  IC50: > 100 µM

## Cc1ccc(-c2cc(C(=O)NC(C)C(=O)N3CCCCC3)on2)cc1 (stereo unspecified)
[1]
  pIC50: 4.246 and 4.264
Proteasome subunit beta
  IC50: 26.1 µM and 26.7 µM

## CN(C(=O)Cc1ccc(NC(=O)NC2CCC2)cc1)c1ccccc1
[1]
  pIC50: < 4
Proteasome subunit beta
  IC50: > 100 µM

## Cc1cc(N2CCN(CC(=O)N(C)C)CC2)nc(-c2ccncc2)n1
[1]
  pIC50: < 4
Histidine--tRNA ligase
  IC50: > 100 µM
Proteasome subunit beta
  IC50: > 100 µM

## CC(C1CC1)N(C)C(=O)c1cnc(-c2ccc3c(c2)OCO3)s1 (stereo unspecified)
[1]
  pIC50: 4.375 and 4.324
Proteasome subunit beta
  IC50: 13.7 µM and 13.1 µM
Schistosoma mansoni
  Percent Effect: 12.48%

## O=C(CC1CN(Cc2ccccc2)CCO1)Nc1ccccc1F (stereo unspecified)
[1]
  pIC50: 4.434 and 4.445
Proteasome subunit beta
  IC50: 12.6 µM and 13.6 µM

## CC(C)n1ccc(-c2cc(C(=O)N3CCCC3)c3ccccn23)n1
[4]
  pIC50: < 4.21
[5]
  pIC50: < 4

## Cn1cccc1C(=O)N1CCC2(CC1)CN(c1cncnc1)C(=O)CO2
[1]
  pIC50: < 4
Proteasome subunit beta
  IC50: > 100 µM

## Cc1nc[nH]c1CN(C)CC1CCCN(CCc2ccc(Cl)cc2)C1 (stereo unspecified)
Trypanosoma brucei
  pIC50: 5.168 and 5.164
Trypanosoma brucei; Trypanosoma brucei, 72 h
  IC50: 6.79 µM
[4]
  pIC50: 4.612 and 4.41
Schistosoma mansoni
  Percent Effect: 102.7%
Leishmania donovani
  pIC50: 5.148
Leishmania donovani; Leishmania donovani
  IC50: 8.56 µM
Plasmodium falciparum [6]
  pIC50: 6.162
Plasmodium falciparum [6]; Plasmodium falciparum
  IC50: 0.565 µM

## Cc1cc(C(=O)N2CCC3(CCCN(CC4CC4)C3=O)C2)c(C)n1C (stereo unspecified)
[1]
  pIC50: < 4
Proteasome subunit beta
  IC50: > 100 µM and 85.7 µM

## CC(C)=CCN1C[C@H]2CC[C@@H]1CN(C(=O)c1c[nH]c(=O)c(Cl)c1)C2
[1]
  pIC50: < 4
Proteasome subunit beta
  IC50: > 100 µM

## O=C(c1ccc(C2CCCO2)s1)N1Cc2ccccc2C1 (stereo unspecified)
[1]
  pIC50: 4.241 and < 4
Proteasome subunit beta
  IC50: 16.1 µM and 11.4 µM

## CNS(=O)(=O)Cc1ccc(CNc2cncc(-n3cccn3)n2)cc1
[1]
  pIC50: 4.398 and 4.427
Proteasome subunit beta
  IC50: 10.5 µM and 10.6 µM
ClpP1P2
  IC50: > 100 µM

## Cc1cnn(C2CN(CC(=O)NCc3ccccn3)C2)c1
[1]
  pIC50: < 4
Histidine--tRNA ligase
  IC50: > 100 µM
Proteasome subunit beta
  IC50: 14.9 µM and 19.7 µM
[2]
  IC50: > 30.2 µM

## Cc1ccc(N(C)C2CCN(C(=O)CCc3ccco3)CC2)nn1
[1]
  pIC50: < 4
Histidine--tRNA ligase
  IC50: 41.4 µM and 49.7 µM
Proteasome subunit beta
  IC50: 12.8 µM and 16.7 µM
[2]
  IC50: > 30.2 µM

## CN(C)c1cc(CNC(=O)Nc2ccc(F)cc2)ccn1
[1]
  pIC50: 4.234 and 4.227
Proteasome subunit beta
  IC50: 14.4 µM and 16.9 µM

## Cc1cc(C(C)C(=O)N2CCCN(Cc3cscn3)CC2)c(C)o1 (stereo unspecified)
[1]
  pIC50: < 4
Proteasome subunit beta
  IC50: > 100 µM

## Cc1ccc(C(=O)Nc2cn[nH]c2)cc1C
[1]
  pIC50: 4.136 and 4.208
Proteasome subunit beta
  IC50: 13.3 µM and 12.6 µM

## Cc1cnn(CC2CN(c3cnc4ccccc4n3)CCO2)c1 (stereo unspecified)
[1]
  pIC50: 4.14 and 4.151
Proteasome subunit beta
  IC50: 17.8 µM and 19.4 µM
[7]
  IC50: 16.4 µM
[8]
  IC50: 14.4 µM

## Cc1cc(C(=O)N2CCc3nnc(N)cc3C2)c(C)n1-c1cccnc1
[1]
  pIC50: < 4
Proteasome subunit beta
  IC50: > 100 µM

## Cc1ccc(-c2nc(CN3CCC(C(=O)N(C)C)CC3)cs2)o1
[1]
  pIC50: < 4
Proteasome subunit beta
  IC50: 46.3 µM and 43.1 µM

## CCOc1cc(/C=C/c2ncc(C(=O)O)s2)ccc1O
[1]
  pIC50: 4.099 and 4.094
Proteasome subunit beta
  IC50: 15.5 µM and 21.9 µM

## CCc1nc(CN2CCCN(C(=O)CCc3ccco3)CC2)cs1
[1]
  pIC50: < 4
Proteasome subunit beta
  IC50: > 100 µM

## c1ccc2sc(N3CCOC(Cn4cccn4)C3)nc2c1 (stereo unspecified)
[1]
  pIC50: 4.135 and 4.203
Proteasome subunit beta
  IC50: 18 µM and 17.7 µM

## Cc1nc(CN2CCOC(CNc3cccnn3)C2)oc1C (stereo unspecified)
[1]
  pIC50: < 4
Proteasome subunit beta
  IC50: > 100 µM

## Cc1nc(CN2CCCC(N(C)Cc3cscn3)C2)no1 (stereo unspecified)
[1]
  pIC50: < 4
Proteasome subunit beta
  IC50: 34.8 µM and 26.4 µM

## CCc1nnc2n1CCN(Cc1csc(-c3ccc(C)o3)n1)C2
[1]
  pIC50: < 4
Proteasome subunit beta
  IC50: > 100 µM

## COc1cccc(-c2nc(CNCCn3cccn3)cs2)c1
[1]
  pIC50: 4.359 and 4.346
Proteasome subunit beta
  IC50: 13.4 µM and 11.8 µM

## CC(O)CNCc1ccc(OCc2ccc3c(c2)OCCO3)cc1.Cl (stereo unspecified)
[1]
  pIC50: 4.507 and 4.501
Plasmodium falciparum [9]
  pIC50: 6.937
Plasmodium falciparum [9]; Plasmodium falciparum
  IC50: 0.0903 µM
Proteasome subunit beta
  IC50: 9.3 µM and 9.77 µM

## Cc1ccc(NCc2cncc3c2CCN(C(=O)C2CC=CC2)C3)nn1.Cl
[1]
  pIC50: < 4
Proteasome subunit beta
  IC50: > 100 µM

## Cl.c1ccc(-c2ccc(C3CNCCO3)nc2)cc1 (stereo unspecified)
[1]
  pIC50: 4.18 and 4.164
Proteasome subunit beta
  IC50: 13.7 µM and 13 µM

## COc1cccc(-c2noc(C3CCN(Cc4cccs4)C3)n2)c1.Cl (stereo unspecified)
[1]
  pIC50: 4.852 and 4.875
Proteasome subunit beta
  IC50: 13.9 µM and 12.6 µM

## Cc1ccc(N2CC[C@H]3O[C@@H](C(=O)NCc4ccco4)CC[C@H]32)nn1.O=C(O)C(F)(F)F
[1]
  pIC50: < 4
Proteasome subunit beta
  IC50: > 100 µM

## O=C(NCCCN1CCOCC1)c1ccn(-c2ccc3ccccn23)n1.O=C(O)C(F)(F)F
[1]
  pIC50: < 4
Proteasome subunit beta
  IC50: > 100 µM

## CO[C@@H]1CN(Cc2scnc2C)[C@@H]2CCCO[C@@H]21.O=C(O)C(F)(F)F.O=C(O)C(F)(F)F
[1]
  pIC50: < 4
Proteasome subunit beta
  IC50: 8.6 µM and 10.8 µM
ClpP1P2
  IC50: > 100 µM
